Experimental data from ChEMBL document CHEMBL1139472, “Synthesis of N-{4-[(2,4-diamino-5-methyl-4,7-dihydro-3H-pyrrolo[2,3-d]pyrimidin-6-yl)thio]benzoyl}-L-glutamic acid and N-{4-[(2-amino-4-oxo-5-methyl-4,7-dihydro-3H-pyrrolo[2,3-d]pyrimidin-6-yl)thio]benzoyl}-L-glutamic acid as dual inhibitors of dihydrofolate reductase and thymidylate synthase and …” (J Med Chem, 2005).
Active and inactive are the calls of the source. The calls are words filed in the database; no cut-off is given here.

Legend:
[1] = target: T1, Folylpolyglutamate synthase, mitochondrial (Homo sapiens) (UniProt Q05932); assay: Ratio of Vmax relative to […] to Km of human recombinant cytosolic FPGS
T1 sequence (whole entry): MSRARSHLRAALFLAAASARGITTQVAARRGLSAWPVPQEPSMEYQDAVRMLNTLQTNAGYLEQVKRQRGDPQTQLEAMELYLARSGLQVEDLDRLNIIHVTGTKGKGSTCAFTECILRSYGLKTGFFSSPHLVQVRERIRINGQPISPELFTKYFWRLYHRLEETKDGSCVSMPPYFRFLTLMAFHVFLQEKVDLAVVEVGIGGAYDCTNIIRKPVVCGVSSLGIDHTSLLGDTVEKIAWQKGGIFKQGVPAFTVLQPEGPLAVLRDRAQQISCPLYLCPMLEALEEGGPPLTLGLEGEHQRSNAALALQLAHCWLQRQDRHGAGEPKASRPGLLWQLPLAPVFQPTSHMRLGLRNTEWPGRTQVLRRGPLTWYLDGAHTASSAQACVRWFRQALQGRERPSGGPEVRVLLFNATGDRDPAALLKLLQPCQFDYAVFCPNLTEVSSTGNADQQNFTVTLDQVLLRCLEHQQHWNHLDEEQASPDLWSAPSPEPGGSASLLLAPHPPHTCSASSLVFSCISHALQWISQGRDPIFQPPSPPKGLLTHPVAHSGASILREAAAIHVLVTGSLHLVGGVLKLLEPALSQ

CCRF-CEM = assay: Growth inhibition of human CCRF-CEM cells at 20 uM; type: functional, cell-based

SMILES	Ratio [1]	Activity (CCRF-CEM)
Nc1nc(N)c2nc(CNc3ccc(C(=O)N[C@@H](CCC(=O)O)C(=O)O)cc3)cnc2n1	0.17	
Cc1c(Sc2ccc(C(=O)N[C@@H](CCC(=O)O)C(=O)O)cc2)[nH]c2nc(N)[nH]c(=O)c12	0.06	inactive
